The supplement of paper PMC10307832

Legend:
Assay in all cases: relative viability (nuclei count vs DMSO), 5 days (fraction); higher = more cells survive
Imatinib + Bortezomib = compound: Cc1ccc(NC(=O)c2ccc(CN3CCN(C)CC3)cc2)cc1Nc1nccc(-c2cccnc2)n1 [Imatinib] + CC(C)C[C@H](NC(=O)[C@H](Cc1ccccc1)NC(=O)c1cnccn1)B(O)O [Bortezomib] (partner 0.002 µM)
Method in brief: (§1)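 Relative viability divides the nuclei count in treated wells by that in vehicle wells. Lung cancer cell lines were seeded in 1536-well plates, dosed by pin tool the next day, and fixed and stained after 5 days in one step with final 0.05% Triton X-100, 1% formaldehyde and 1 ug/ml Hoechst. Dosing was a single drug or a fixed anchor-drug dose plus five library-drug doses (not always all listed) in √10 steps, and values are medians of duplicate plates imaged at 4×.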

Imatinib + Lapatinib = compound: Cc1ccc(NC(=O)c2ccc(CN3CCN(C)CC3)cc2)cc1Nc1nccc(-c2cccnc2)n1 [Imatinib] + CS(=O)(=O)CCNCc1ccc(-c2ccc3ncnc(Nc4ccc(OCc5cccc(F)c5)c(Cl)c4)c3c2)o1 [Lapatinib] (partner 2 µM)
Method in brief: as §1

Imatinib + Pictilisib = compound: Cc1ccc(NC(=O)c2ccc(CN3CCN(C)CC3)cc2)cc1Nc1nccc(-c2cccnc2)n1 [Imatinib] + CS(=O)(=O)N1CCN(Cc2cc3nc(-c4cccc5[nH]ncc45)nc(N4CCOCC4)c3s2)CC1 [Pictilisib] (partner 1 µM)
Method in brief: as §1

Imatinib + Alpelisib = compound: Cc1ccc(NC(=O)c2ccc(CN3CCN(C)CC3)cc2)cc1Nc1nccc(-c2cccnc2)n1 [Imatinib] + Cc1nc(NC(=O)N2CCC[C@H]2C(N)=O)sc1-c1ccnc(C(C)(C)C(F)(F)F)c1 [Alpelisib] (partner 2 µM)
Method in brief: as §1

Cell Line	relative viability (Imatinib + Bortezomib; first compound 0.02 µM)	relative viability (Imatinib + Bortezomib; first compound 0.2 µM)	relative viability (Imatinib + Bortezomib; first compound 2 µM)	relative viability (Imatinib + Lapatinib; first compound 0.02 µM)	relative viability (Imatinib + Lapatinib; first compound 0.6325 µM)	relative viability (Imatinib + Lapatinib; first compound 2 µM)	relative viability (Imatinib + Pictilisib; first compound 0.02 µM)	relative viability (Imatinib + Pictilisib; first compound 0.2 µM)	relative viability (Imatinib + Pictilisib; first compound 0.6325 µM)	relative viability (Imatinib + Pictilisib; first compound 2 µM)	relative viability (Imatinib + Alpelisib; first compound 0.02 µM)	relative viability (Imatinib + Alpelisib; first compound 0.2 µM)	relative viability (Imatinib + Alpelisib; first compound 0.6325 µM)	relative viability (Imatinib + Alpelisib; first compound 2 µM)	relative viability (Imatinib + Bortezomib; first compound 0.6325 µM)	relative viability (Imatinib + Lapatinib; first compound 0.2 µM)	relative viability (Imatinib + Lapatinib; first compound 0.06325 µM)	relative viability (Imatinib + Bortezomib; first compound 0.06325 µM)	relative viability (Imatinib + Pictilisib; first compound 0.06325 µM)	relative viability (Imatinib + Alpelisib; first compound 0.06325 µM)
201T	1.08	1.13	1.06	0.993	0.989	0.989	0.711	0.664	0.729	0.679	1.03	1.07	1.02	0.993	–	–	–	–	–	–
A-427	1.11	1.11	0.853	–	1.12	0.952	0.749	0.692	0.739	0.663	1.11	–	1.1	1.06	1.05	1.05	–	–	–	–
ABC-1	0.311	0.282	0.348	1.25	0.312	1.11	0.685	0.669	0.914	0.679	1.1	1.35	1.13	0.888	0.235	1.31	0.727	–	–	–
BEN	0.975	0.796	0.581	–	0.697	0.54	0.609	0.619	0.491	0.673	1.1	0.93	1.05	1.03	0.79	0.725	0.465	0.641	0.383	0.785
CAL-12T	1.07	0.927	1.02	0.631	0.705	0.667	0.507	0.486	0.667	0.524	1.47	1.42	1.17	1.14	0.968	0.938	0.609	1.1	0.433	1.62
COR-L23	1.38	1.2	0.947	1.13	0.922	0.829	1.02	1.1	0.786	–	0.794	0.969	0.806	0.902	1.18	1.41	0.791	1.03	0.715	1.02
COR-L 105	1.08	0.73	–	0.398	0.368	0.385	0.37	0.508	0.406	0.385	1.29	1.18	0.882	1.01	0.636	0.351	0.361	0.871	0.372	1.35
Calu-6	1.13	1.01	0.867	1.24	1.16	1.13	1.18	1.16	0.887	0.89	1.1	1.11	1.01	0.946	1.08	1.27	1.23	1.06	1.11	–
ChaGo-K-1	0.975	1.01	–	–	–	–	0.88	0.589	–	–	–	–	–	–	1.15	–	–	1.37	0.497	–
EBC-1	0.556	0.52	0.423	0.182	0.195	0.168	0.425	0.387	0.304	0.334	0.763	0.893	0.823	0.634	0.58	0.216	0.187	0.623	0.405	–
EKVX	1.03	1.13	1.09	0.222	0.208	0.197	0.419	0.475	0.528	0.508	0.967	0.89	0.835	1.01	1.15	0.197	0.189	1.14	0.343	0.883
EMC-BAC-2	1.11	1.21	1.07	0.937	0.972	0.873	0.513	0.614	0.536	0.582	0.823	0.877	0.788	0.844	1.16	0.833	0.702	1.11	0.505	0.81
EPLC-272H	0.98	1.15	1.06	0.779	1.17	0.835	0.301	0.402	0.344	0.286	1.04	0.987	1.03	0.843	1.06	0.97	–	–	–	–
H3255	0.796	0.729	0.7	0.234	0.266	0.23	0.493	0.507	0.447	0.426	0.815	0.747	0.645	0.618	0.699	0.268	–	–	0.488	–
HARA	0.952	1.5	1.1	0.629	0.748	0.781	0.42	0.389	0.363	0.339	1	0.822	0.697	0.804	1.09	0.83	0.996	1.25	0.406	0.501
